Laboratory results from patent US20060058250A1, “Methods of treating proliferative skin diseases using carbazole derivatives” (Cephalon, Inc., priority 2004, published 2006).

Key:
[1] = tested on: SCID-mouse-human skin model of psoriasis; settings: cited from earlier work
keratinocytes = settings: cited from earlier work
psoriasis = assay: Case report: patient with severe psoriasis treated with oral lestaurtinib; assay type: in vivo, human; settings: person, severe psoriasis in the ankle region; oral solution 60 mg bid, 80 mg bid after 29 days; observed on day 60
Protocol: A patient with a history of renal and prostate cancer, arthritic pain and chronic bronchitis presented with severe psoriasis in the ankle region. The patient started treatment with lestaurtinib at a dosage of 60 mg bid. Lestaurtinib was administered twice daily as an oral solution at a concentration of 25 mg/mL in polysorbate 80 NF (10 mL) and propylene glycol USP (10 mL), diluted in juice. The following juices are approved for use to administer lestaurtinib: grape, pineapple, apple, V8® 100% vegetable juice, and orange juice (pulp free). After 29 days from initiation, the dosage was increased to 80 mg bid.

| SMILES | improvement in the skin condition [1] | block of autocrine NGF loop and keratinocyte apoptosis (keratinocytes) | remission of psoriasis (psoriasis) |
| --- | --- | --- | --- |
| COC(=O)[C@@]1(O)C[C@H]2O[C@]1(C)n1c3ccccc3c3c4c(c5c6ccccc6n2c5c31)C(=O)NC4 [Compound K-252a, K-252a] | noticeable improvement in the skin condition | can block an autocrine NGF loop and result in keratinocyte apoptosis | – |
| C[C@]12O[C@H](C[C@]1(O)CO)n1c3ccccc3c3c4c(c5c6ccccc6n2c5c31)CNC4=O [lestaurtinib] | – | – | relative remission of psoriasis |
